Data published in DBAASP.
Converted amounts (≈) assume the structure as drawn.

Assays:
Assay in all cases: ≥ marks a high value that may be exact or a test limit, other limits are often not marked, values filed in µg/mL are converted to µM
[1] = system: Bacillus subtilis ATCC 6633
Shigella dysenteriae = system: Shigella dysenteriae
[2] = system: Candida albicans ATCC 2002
[3] = system: Escherichia coli ATCC 25922
[4] = system: Staphylococcus aureus ATCC 2592
[5] = system: Klebsiella pneumoniae ATCC 13883
[6] = system: Pseudomonas aeruginosa ATCC 27853
Escherichia coli ML-35p = system: Escherichia coli ML-35p
[7] = system: Streptococcus pyogenes ATCC 19615
[8] = system: Staphylococcus aureus ATCC 25923
[9] = system: Enterococcus faecalis ATCC 29212
Saccharomyces cerevisiae = system: Saccharomyces cerevisiae
[10] = system: Staphylococcus aureus ATCC 43300
[11] = system: Staphylococcus aureus ATCC BAA-44
[12] = system: Candida parapsilosis ATCC 22019
[13] = system: Staphylococcus aureus ST1065
[14] = system: Acinetobacter baumannii ATCC 19606
Escherichia coli = system: Escherichia coli
Serratia marcescens = system: Serratia marcescens
Pseudomonas aeruginosa = system: Pseudomonas aeruginosa
Micrococcus luteus = system: Micrococcus luteus
Bacillus subtilis = system: Bacillus subtilis
Salmonella typhimurium = system: Salmonella typhimurium
[15] = system: Staphylococcus epidermidis
Candida albicans = system: Candida albicans
Proteus mirabilis = system: Proteus mirabilis
[16] = system: Streptococcus sanguinis ATCC 10556
[17] = system: Streptococcus mutans UA159
[18] = system: Streptococcus sobrinus ATCC 6715
[19] = system: Staphylococcus aureus 209P
[20] = system: Pseudomonas aeruginosa PAO1
Escherichia coli C600 = system: Escherichia coli C600
[21] = system: Staphylococcus aureus ATCC 29231
[22] = system: Klebsiella pneumoniae WGLW2
[23] = system: Acinetobacter baumannii ATCC 7978
[24] = system: Pseudomonas aeruginosa PA14
Bacillus subtilis DELTA = system: Bacillus subtilis DELTA
[25] = system: Zymomonas mobilis ATCC 10988
[26] = system: Escherichia coli DH5alpha
Candida parapsilosis = system: Candida parapsilosis

In the case of CC(C)C[C@H](NC(=O)CNC(=O)[C@@H](NC(=O)[C@H](CCCCN)NC(=O)CNC(=O)[C@H](C)NC(=O)[C@H](Cc1c[nH]c2ccccc12)NC(=O)[C@H](CCCCN)NC(=O)[C@H](CC(C)C)NC(=O)[C@H](CC(C)C)NC(=O)[C@H](Cc1ccccc1)NC(=O)[C@H](CCCCN)NC(=O)[C@H](CC(C)C)NC(=O)[C@@H](NC(=O)[C@H](Cc1ccccc1)NC(=O)[C@@H](N)Cc1ccccc1)C(C)C)C(C)C)C(=O)N[C@@H](CCC(=O)O)C(=O)N[C@@H](Cc1cnc[nH]1)C(=O)N[C@@H](CC(C)C)C(=O)N[C@@H](C)C(=O)N[C@H]1CSSC[C@@H](C(=O)O)NC(=O)[C@H](Cc2c[nH]c3ccccc23)NC(=O)[C@H](CC(N)=O)NC(=O)[C@H](CCCCN)NC(=O)[C@H](Cc2ccccc2)NC(=O)[C@H](CCCCN)NC1=O [FFVLKFLLKWAGKVGLEHLACKFKNWC], the MIC [1] is reported as 0.465 µM (≈ 1.5 µg/mL), the MIC (Shigella dysenteriae) is reported as 0.465 µM (≈ 1.5 µg/mL) and the MIC [2] is reported as 3.87 µM (≈ 12.5 µg/mL). For the same compound, the MIC [3] was 1.94 µM (≈ 6.25 µg/mL) and the MIC [4] was 3.87 µM (≈ 12.5 µg/mL).

Work on CC[C@H](C)[C@H](NC(=O)[C@H](Cc1cnc[nH]1)NC(=O)[C@@H]1CCCN1C(=O)[C@@H](NC(=O)[C@H](CCSC)NC(=O)[C@H](CO)NC(=O)[C@H](CC(C)C)NC(=O)[C@@H](N)Cc1ccccc1)[C@@H](C)CC)C(=O)N[C@H](C(=O)N[C@@H](CO)C(=O)NCC(=O)N[C@H](C(=O)N[C@@H](C)C(=O)N[C@@H](C)C(=O)N[C@@H](CC(C)C)C(=O)N[C@@H](C)C(=O)N[C@@H](CCCCN)C(=O)N[C@@H](Cc1cnc[nH]1)C(=O)N[C@@H](CC(C)C)C(N)=O)C(C)C)C(C)C [FLSMIPHIVSGVAALAKHL] yielded an MIC [5] of 25 µM (≈ 50.1 µg/mL), an MIC [6] of 100 µM (≈ 200 µg/mL) and an MIC (Escherichia coli ML-35p) of 25 µM (≈ 50.1 µg/mL). For the same compound, the MIC [7] was 3.12 µM (≈ 6.25 µg/mL), the MIC [8] was 6.25 µM (≈ 12.5 µg/mL) and the MIC [9] was 50 µM (≈ 100 µg/mL). The MIC (Saccharomyces cerevisiae) was 12.5 µM (≈ 25 µg/mL), the MIC [10] was 6.25 µM (≈ 12.5 µg/mL) and the MIC [11] was 6.25 µM (≈ 12.5 µg/mL). The MIC [3] was 25 µM (≈ 50.1 µg/mL), the MIC [12] was ≥ 50 µM and the MIC [13] was 6.25 µM (≈ 12.5 µg/mL). For the same compound, the MIC [14] was 6.25 µM (≈ 12.5 µg/mL).

CC[C@H](C)[C@H](NC(=O)CN)C(=O)N[C@@H](CC(C)C)C(=O)N[C@@H](CC(=O)O)C(=O)N[C@H](C(=O)N[C@@H](CC(C)C)C(=O)N[C@@H](CCCCN)C(=O)N[C@@H](CCC(N)=O)C(=O)N[C@@H](Cc1ccccc1)C(=O)N[C@@H](C)C(=O)N[C@@H](CCCCN)C(=O)NCC(=O)N[C@H](C(=O)NCC(=O)N[C@@H](CCCCN)C(=O)N[C@@H](CC(=O)O)C(=O)N[C@@H](CC(C)C)C(=O)N[C@H](C(=O)N[C@@H](CCCCN)C(=O)NCC(=O)N[C@@H](C)C(=O)N[C@@H](C)C(=O)N[C@@H](CCC(N)=O)C(=O)NCC(=O)N[C@H](C(=O)O)C(C)C)C(C)C)C(C)C)[C@@H](C)O [GILDTLKQFAKGVGKDLVKGAAQGV] was tested, and the MIC (Escherichia coli) was 19.9 µM (≈ 50 µg/mL), the MIC (Serratia marcescens) was ≥ 39.8 µM and the MIC (Pseudomonas aeruginosa) was 39.8 µM (≈ 100 µg/mL). It also gave an MIC (Micrococcus luteus) of 1.99 µM (≈ 5 µg/mL), an MIC (Shigella dysenteriae) of 19.9 µM (≈ 50 µg/mL) and an MIC (Saccharomyces cerevisiae) of 19.9 µM (≈ 50 µg/mL). For the same compound, the MIC (Bacillus subtilis) was ≥ 39.8 µM, the MIC (Salmonella typhimurium) was ≥ 39.8 µM and the MIC [15] was 29.8 µM (≈ 75 µg/mL). The MIC (Candida albicans) was > 39.8 µM and the MIC (Proteus mirabilis) was 19.9 µM (≈ 50 µg/mL).

CC(C)[C@H](NC(=O)[C@H](CCCN=C(N)N)NC(=O)[C@H](CCCCN)NC(=O)CNC(=O)[C@@H](NC(=O)[C@H](CCCN=C(N)N)NC(=O)[C@H](Cc1c[nH]c2ccccc12)NC(=O)[C@H](Cc1c[nH]c2ccccc12)NC(=O)[C@H](CCCCN)NC(=O)[C@H](CCCCN)NC(=O)[C@H](Cc1ccccc1)NC(=O)[C@H](Cc1ccccc1)NC(=O)[C@H](CCCN=C(N)N)NC(=O)CNC(=O)[C@H](Cc1c[nH]c2ccccc12)NC(=O)CN)C(C)C)C(=O)NCC(=O)N[C@@H](CCCCN)C(=O)O [GWGRFFKKWWRVGKRVGK] gave an MIC [16] of 7.02 µM (≈ 16 µg/mL), an MIC [17] of 7.02 µM (≈ 16 µg/mL) and an MIC [18] of 7.02 µM (≈ 16 µg/mL).

Work on CC(C)[C@H](NC(=O)[C@H](CCCCN)NC(=O)[C@H](CCCCN)NC(=O)[C@H](Cc1c[nH]c2ccccc12)NC(=O)[C@H](CCCCN)NC(=O)[C@H](CCCCN)NC(=O)[C@H](Cc1ccccc1)NC(=O)[C@H](Cc1ccccc1)NC(=O)[C@H](CCCCN)NC(=O)[C@H](CCCCN)NC(=O)[C@H](Cc1c[nH]c2ccccc12)NC(=O)CN)C(=O)N[C@@H](Cc1c[nH]c2ccccc12)C(=O)N[C@@H](CCCCN)C(=O)O [GWKKFFKKWKKVWK] yielded an MIC [16] of 16.6 µM (≈ 32 µg/mL), an MIC [17] of 8.31 µM (≈ 16 µg/mL) and an MIC [18] of 8.31 µM (≈ 16 µg/mL).

For CC[C@H](C)[C@@H]1NC(=O)CNC(=O)[C@H](CCCN=C(N)N)NC(=O)[C@H](Cc2ccc(O)cc2)NC(=O)[C@@H]2CSSC[C@H](NC1=O)C(=O)N[C@@H](Cc1ccc(O)cc1)C(=O)N[C@@H](CCCN=C(N)N)C(=O)N[C@@H](CCCN=C(N)N)C(=O)N[C@H](C(=O)N[C@@H](CCCN=C(N)N)C(=O)O)CSSC[C@H](NC(=O)[C@H](Cc1c[nH]c3ccccc13)NC(=O)[C@@H](N)CCCCN)C(=O)N[C@@H](Cc1ccccc1)C(=O)N[C@@H](CCCN=C(N)N)C(=O)N[C@@H](CCCN=C(N)N)C(=O)N2 [KWCFRRCYRGICYRRCR], the MIC [19] was ≥ 50 µM, the MIC [20] was > 50 µM and the MIC (Escherichia coli C600) was 1.56 µM (≈ 3.62 µg/mL).

In the case of CC[C@H](C)[C@H](NC(=O)[C@H](CCCCN)NC(=O)[C@H](Cc1c[nH]c2ccccc12)NC(=O)[C@H](Cc1c[nH]c2ccccc12)NC(=O)[C@@H](NC(=O)[C@H](CCCCN)NC(=O)[C@H](Cc1c[nH]c2ccccc12)NC(=O)[C@@H](N)CC(C)C)[C@@H](C)CC)C(=O)N[C@@H](Cc1c[nH]c2ccccc12)C(=O)N[C@@H](CCCN=C(N)N)C(=O)N[C@H](C(=O)N[C@@H](Cc1c[nH]c2ccccc12)C(=O)N[C@@H](Cc1c[nH]c2ccccc12)C(=O)N[C@@H](CC(N)=O)C(=O)N[C@@H](Cc1c[nH]c2ccccc12)C(=O)N[C@@H](CCCN=C(N)N)C(=O)O)C(C)C [LWKIWWKIWRVWWNWR], the MIC [21] is reported as ≥ 52.4 µM, the MIC [22] is reported as ≥ 52.4 µM and the MIC [23] is reported as ≥ 52.4 µM. The MIC [24] was ≥ 52.4 µM.

CC[C@H](C)[C@H](NC(=O)[C@H](Cc1ccccc1)NC(=O)[C@H](CCCCN)NC(=O)[C@H](CC(C)C)NC(=O)[C@H](CC(C)C)NC(=O)[C@@H](N)CCCN=C(N)N)C(=O)N[C@@H](CCCCN)C(=O)N[C@@H](CCCCN)C(=O)N[C@@H](CC(C)C)C(=O)N[C@@H](CC(C)C)C(N)=O [RLLKFIKKLL] was tested, and the MIC (Bacillus subtilis DELTA) was 31.5 µM (≈ 40 µg/mL), the MIC [25] was 7.86 µM (≈ 9.99 µg/mL) and the MIC [26] was ≥ 315 µM. For the same compound, the MIC (Candida parapsilosis) was 23.6 µM (≈ 30 µg/mL).
